Results: publication PMC4303209, “A novel phosphatidylinositol 3-kinase (PI3K) inhibitor directs a potent FOXO-dependent, p53-independent cell cycle arrest phenotype characterized by the differential induction of a subset of FOXO-regulated genes” (Breast Cancer Research : BCR, 2014)

Test system: MCF-7 breast cancer cells
Assay: Microarray gene expression analysis (Agilent whole human genome 4 x 44K; compound vs DMSO, LIMMA log2 fold change)
Format: cell-based
Conditions: Apoptosis genes

Cn1ncc2c(N3CCOCC3)nc(-c3cccc(O)c3)nc21 [ETP-45658]
TBX1 log2FC (Gene 6899): -0.252 | TBX5 log2FC (Gene 6910): 0.253 | TBX3 log2FC (Gene 6926): -0.702 | TCF7L2 log2FC (Gene 6934): 0.069 | TDGF1 log2FC (Gene 6997): -0.229 | PRDX2 log2FC (Gene 7001): 0.238 | TERF1 log2FC (Gene 7013): 0.607 | TERT log2FC (Gene 7015): -0.174 | TFAP2A log2FC (Gene 7020): -0.422 | TFAP2B log2FC (Gene 7021): -0.228 | TFAP4 log2FC (Gene 7023): 0.268 | TGFA log2FC (Gene 7039): -0.305 | TGFB1 log2FC (Gene 7040): -0.640 | TGFB3 log2FC (Gene 7043): 0.297 | TGFBR1 log2FC (Gene 7046): 0.107 | TGFBR2 log2FC (Gene 7048): 0.848 | TGM2 log2FC (Gene 7052): -0.663 | THBS1 log2FC (Gene 7057): -0.941 | THRA log2FC (Gene 7067): 0.422 | TIA1 log2FC (Gene 7072): 0.264 | TIAL1 log2FC (Gene 7073): 0.293 | TIAM1 log2FC (Gene 7074): -0.410 | TIMP1 log2FC (Gene 7076): -0.529 | TJP1 log2FC (Gene 7082): 0.201 | TLE1 log2FC (Gene 7088): 0.258 | TLR2 log2FC (Gene 7097): -0.108 | TLR3 log2FC (Gene 7098): 0.853 | NR2E1 log2FC (Gene 7101): -0.094 | TMF1 log2FC (Gene 7110): 0.560 | TNF log2FC (Gene 7124): -1.647 | TNFAIP1 log2FC (Gene 7126): -0.176 | TNFAIP3 log2FC (Gene 7128): -0.659 | TNFRSF1A log2FC (Gene 7132): -1.037 | TOP2A log2FC (Gene 7153): 0.987 | TP53 log2FC (Gene 7157): -0.193 | TP53BP2 log2FC (Gene 7159): 0.300 | TP73 log2FC (Gene 7161): -0.503 | TPD52L1 log2FC (Gene 7164): 0.379 | TPT1 log2FC (Gene 7178): 0.799 | HSP90B1 log2FC (Gene 7184): 0.583 | TRAF1 log2FC (Gene 7185): -0.690 | TRAF3 log2FC (Gene 7187): -0.696 | TRAF5 log2FC (Gene 7188): 0.441 | TRAF6 log2FC (Gene 7189): -0.110 | TRIO log2FC (Gene 7204): 0.329 | TRPS1 log2FC (Gene 7227): 0.712 | PHLDA2 log2FC (Gene 7262): -2.933 | TWIST1 log2FC (Gene 7291): 0.401 | TNFRSF4 log2FC (Gene 7293): -0.061 | TYRO3 log2FC (Gene 7301): -0.084 | UBA52 log2FC (Gene 7311): 0.322 | UBB log2FC (Gene 7314): 0.069 | UBC log2FC (Gene 7316): 0.294 | UBE2B log2FC (Gene 7320): 0.582 | UBE2D3 log2FC (Gene 7323): -0.312 | UCN log2FC (Gene 7349): 0.210 | UCP2 log2FC (Gene 7351): 0.279 | UNG log2FC (Gene 7374): -0.235 | VAV1 log2FC (Gene 7409): 0.573 | VAV2 log2FC (Gene 7410): 0.047 | VCP log2FC (Gene 7415): -0.341 | VDAC1 log2FC (Gene 7416): -0.389 | VDR log2FC (Gene 7421): -0.801 | VEGFB log2FC (Gene 7423): -0.219 | VHL log2FC (Gene 7428): 0.156 | WFS1 log2FC (Gene 7466): -0.738 | WNT5A log2FC (Gene 7474): 0.075 | WNT7A log2FC (Gene 7476): -0.084 | WNT7B log2FC (Gene 7477): -0.527 | WNT10B log2FC (Gene 7480): -0.451 | WNT11 log2FC (Gene 7481): -0.151 | WNT9A log2FC (Gene 7483): 0.073 | WRN log2FC (Gene 7486): 0.441 | WT1 log2FC (Gene 7490): -0.635 | XDH log2FC (Gene 7498): 0.061 | XPA log2FC (Gene 7507): 0.451 | XRCC2 log2FC (Gene 7516): -0.596 | XRCC4 log2FC (Gene 7518): 0.589 | YWHAB log2FC (Gene 7529): 0.414 | YWHAE log2FC (Gene 7531): 0.239 | YWHAG log2FC (Gene 7532): -0.492 | YWHAH log2FC (Gene 7533): -0.469 | YWHAZ log2FC (Gene 7534): -0.139 | ZNF16 log2FC (Gene 7564): 0.343 | PCGF2 log2FC (Gene 7703): -0.266 | DAP3 log2FC (Gene 7818): 0.449 | BTG2 log2FC (Gene 7832): -1.109 | PAX8 log2FC (Gene 7849): 0.414 | FZD5 log2FC (Gene 7855): -0.562 | SCG2 log2FC (Gene 7857): 0.617 | NR4A3 log2FC (Gene 8013): 0.735 | LHX3 log2FC (Gene 8022): 0.038 | RASSF7 log2FC (Gene 8045): 0.255 | FOSL1 log2FC (Gene 8061): -2.502 | CUL5 log2FC (Gene 8065): -0.432 | FXR1 log2FC (Gene 8087): 0.876 | HMGA2 log2FC (Gene 8091): -1.656 | GDF5 log2FC (Gene 8200): -0.419 | RBM10 log2FC (Gene 8241): -0.320 | AXIN1 log2FC (Gene 8312): 0.481 | NME5 log2FC (Gene 8382): 0.189 | PLA2G6 log2FC (Gene 8398): -0.247 | SRPX log2FC (Gene 8406): 0.110 | STK24 log2FC (Gene 8428): -0.121 | NSMAF log2FC (Gene 8439): 0.488 | DYRK2 log2FC (Gene 8445): -0.546 | CUL4A log2FC (Gene 8451): 0.552 | CUL3 log2FC (Gene 8452): 0.137 | CUL2 log2FC (Gene 8453): 0.454 | CUL1 log2FC (Gene 8454): 0.479 | KLF11 log2FC (Gene 8462): 1.337 | OGT log2FC (Gene 8473): 0.232 | IKBKG log2FC (Gene 8517): -0.398 | CBX4 log2FC (Gene 8535): -0.217 | API5 log2FC (Gene 8539): -0.382 | YARS log2FC (Gene 8565): -0.265 | MADD log2FC (Gene 8567): 0.423 | UNC5C log2FC (Gene 8633): -0.082 | AKR1C3 log2FC (Gene 8644): 0.209 | NCOA1 log2FC (Gene 8648): 0.390 | DYNLL1 log2FC (Gene 8655): -0.944 | IRS2 log2FC (Gene 8660): 0.732 | BECN1 log2FC (Gene 8678): 0.486 | PEA15 log2FC (Gene 8682): 0.593 | HYAL2 log2FC (Gene 8692): -0.387 | TRADD log2FC (Gene 8717): 0.340 | TNFRSF25 log2FC (Gene 8718): -0.499 | RIPK1 log2FC (Gene 8737): -0.187 | CRADD log2FC (Gene 8738): -0.101 | HRK log2FC (Gene 8739): 0.385 | RIPK2 log2FC (Gene 8767): 0.592 | TNFRSF6B log2FC (Gene 8771): -1.094 | FADD log2FC (Gene 8772): -0.522 | TNFRSF18 log2FC (Gene 8784): -0.321 | TNFRSF10D log2FC (Gene 8793): -0.444 | TNFRSF10B log2FC (Gene 8795): -0.935 | TNFRSF10A log2FC (Gene 8797): -0.657 | TRIM24 log2FC (Gene 8805): 0.836 | NRP1 log2FC (Gene 8829): -0.517 | SYNGAP1 log2FC (Gene 8831): -0.373 | SOCS2 log2FC (Gene 8835): 0.750 | CFLAR log2FC (Gene 8837): -0.499 | HDAC3 log2FC (Gene 8841): -0.217 | ALKBH1 log2FC (Gene 8846): -0.105 | TSC22D1 log2FC (Gene 8848): 0.485 | CDK5R1 log2FC (Gene 8851): -0.154 | ALDH1A2 log2FC (Gene 8854): 0.218 | IER3 log2FC (Gene 8870): -1.789 | ARHGEF7 log2FC (Gene 8874): 0.162 | SPHK1 log2FC (Gene 8877): -0.334 | SQSTM1 log2FC (Gene 8878): 0.788 | SGPL1 log2FC (Gene 8879): -0.071 | TAX1BP1 log2FC (Gene 8887): 1.376 | BCL10 log2FC (Gene 8915): 0.158 | MBD4 log2FC (Gene 8930): 0.489 | NOL3 log2FC (Gene 8996): 0.514
